According to patent publication US4275248A, “Preparation of 2,4,6-triisopropylphenol” (UOP Inc., priority 1980, dated 1981):
“Also recorded” adds a separate entry of the source. Where two headings read alike, the source gives them in different places.

Key:
[1] = Oxidative stability of gasoline / petroleum distillates, overall antioxidant effectiveness in words; conditions: for effectiveness in increasing the induction period: versus commercial product commonly used to stabilize gasoline
Text: Among the products which may be prepared by this invention, the di- and tri-isopropylated hydroxy substituted aromatic compounds are effective antioxidants for stabilizing various petroleum distillates. Examples of the latter include home heating fuel, gasoline, diesel fuel, aviaton fuel, kerosene, and lubricating oils. […] One way of determining the stabilizing effect of additives is to compare the induction period to oxidation of a composton differing only in the nature of the additive present. […] The di- and tri-isopropylated phenols of the present invention may be used as antioxidants at concentrations from about 5 parts per million by weight to about 5% by weight, and preferably from about 5 to about 500 parts per million by weight when used in fuel oils.
(§1) The effectiveness of materials as antioxidants in liquid petroleum products was determined by measurement of the induction period prior to oxidation, ANSI/ASTM method D525-74, and by measurement of gum formation under accelerated storage conditions, ANSI/ASTM method D873-74. The liquid petroleum product was either a base washed riser-cracked gasoline from British Petroleum Co., Canada (sample A) or a base washed, blended full range gasoline from Union Oil (sample B). As a comparison, there is included an antioxidant of wide commercial utility which consists of 2,6-di-t-butylphenol (75%), 2,4,6-tri-t-butylphenol (15%) and 2,t-butylphenol (10%) and which we designate by the symbol E733.

[2] = Gum formation under accelerated storage conditions, ANSI/ASTM method D873-74, gasoline sample A
Method: as §1

[3] = Induction period prior to oxidation, ANSI/ASTM method D525-74, gasoline sample A
Method: as §1

[4] = Induction period prior to oxidation, ANSI/ASTM method D525-74, gasoline sample B; conditions: runs 4-7 (no additive: 80-105)
Method: as §1

[5] = Gum formation under accelerated storage conditions, ANSI/ASTM method D873-74, gasoline sample B; conditions: runs 4-7 (no additive: 320)
Method: as §1

[6] = 35 ppm, runs 4-7 (no additive: 180)
[7] = 50 ppm, runs 4-7 (no additive: 180)
[8] = 20 ppm, runs 4-7 (no additive: 125-130)
[9] = 35 ppm, runs 4-7 (no additive: 125-130)
[10] = 50 ppm, runs 4-7 (no additive: 125-130)

antioxidant effectiveness for stabilizing petroleum distillates [1] | Structure (SMILES) | imparting oxidative stability to the gasolines tested [1] | effectiveness in increasing the induction period [1] | Accelerated Gum [2, 6] | Accelerated Gum [2, 7] | Induction Period [3, 8] | Induction Period [3, 9] | Induction Period [3, 10] | Induction Period ([4]; 20 ppm) | Induction Period ([4]; 35 ppm) | Induction Period ([4]; 50 ppm) | Accelerated Gum ([5]; 20 ppm) | Accelerated Gum ([5]; 35 ppm) | Accelerated Gum ([5]; 50 ppm) | antioxidant effectiveness for stabilizing petroleum distillates ([1]; general statement in words) | imparting oxidative stability to the gasolines tested ([1]; versus commercial standard, measured by increase in induction period and decrease in gum formation) | Accelerated Gum ([2]; 20 ppm, runs 1-3 (no additive: 45)) | Accelerated Gum ([2]; 40 ppm, runs 1-3 (no additive: 45)) | Induction Period ([3]; 20 ppm, runs 1-3 (no additive: 170)) | Induction Period ([3]; 40 ppm, runs 1-3 (no additive: 170))
particularly effective | CC(C)c1cc(C(C)C)c(O)c(C(C)C)c1 [2,4,6-triisopropylphenol] | substantially more effective than an accepted commercial standard | substantially more effective in increasing the induction period | 7-8 mg/100 ml | 7-8 mg/100 ml | 245 min | 310 min | 375 min | 270 min | 350 min | 420 min | 13 mg/100 ml | 2.5 mg/100 ml | 2.5 mg/100 ml |  |  |  |  |  | 
 | Cc1cc(C(C)C)c(O)c(C(C)C)c1 [2,6-diisopropyl-4-methylphenol] |  | substantially more effective in increasing the induction period |  |  |  |  |  |  |  |  |  |  |  | particularly effective; also recorded: particularly desirable antioxidant properties | substantially more effective than an accepted commercial standard | 5 mg/100 ml | 3 mg/100 ml | 340 min | 475 min
 | CC(C)c1cccc(C(C)C)c1O [2,6-diisopropylphenol] |  |  | 35 mg/100 ml | 9 mg/100 ml | 200 min | 240 min | 305 min | 195 min | 250 min | 310 min |  | 4.5 mg/100 ml | 3.5 mg/100 ml |  |  |  |  |  | 
